Key:
[1] = biological target: T1, D(3) dopamine receptor (Homo sapiens, UniProt P35462); assay: Functional activity in vitro using microphysiometry at Dopamine receptor D3; Agonist; settings: filed as agonist
[2] = biological target: T1, D(3) dopamine receptor
Description: Tested for the ability to displace [125I]iodosulpiride from human cloned Dopamine receptor D3, expressed in CHO cells

[3] = biological target: T2, D(2) dopamine receptor (Homo sapiens, UniProt P14416); assay: Tested for the ability to displace [125I]iodosulpiride from human cloned Dopamine receptor D2, expressed in CHO cells.; type: cell-based
[4] = biological target: T1, D(3) dopamine receptor; assay: Tested for the functional activity in vitro using microphysiometry at Dopamine receptor D3; antagonist; settings: filed as antagonist
[5] = biological target: T2, D(2) dopamine receptor; assay: Displacement of [125I]iodosulpiride from human Dopamine receptor D2 expressed in CHO cells; type: cell-based

T1 sequence (P35462 whole entry): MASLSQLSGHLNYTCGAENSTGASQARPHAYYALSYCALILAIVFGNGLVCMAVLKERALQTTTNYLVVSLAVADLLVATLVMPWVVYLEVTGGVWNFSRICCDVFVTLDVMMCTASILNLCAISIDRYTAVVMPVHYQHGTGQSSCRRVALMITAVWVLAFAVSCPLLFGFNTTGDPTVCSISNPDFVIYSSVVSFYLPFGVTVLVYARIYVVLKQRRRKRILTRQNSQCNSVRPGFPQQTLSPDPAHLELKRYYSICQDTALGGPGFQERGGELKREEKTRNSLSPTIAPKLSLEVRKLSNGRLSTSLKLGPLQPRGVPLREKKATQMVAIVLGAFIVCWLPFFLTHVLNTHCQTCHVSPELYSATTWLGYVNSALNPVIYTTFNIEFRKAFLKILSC
T2 sequence (P14416 whole entry): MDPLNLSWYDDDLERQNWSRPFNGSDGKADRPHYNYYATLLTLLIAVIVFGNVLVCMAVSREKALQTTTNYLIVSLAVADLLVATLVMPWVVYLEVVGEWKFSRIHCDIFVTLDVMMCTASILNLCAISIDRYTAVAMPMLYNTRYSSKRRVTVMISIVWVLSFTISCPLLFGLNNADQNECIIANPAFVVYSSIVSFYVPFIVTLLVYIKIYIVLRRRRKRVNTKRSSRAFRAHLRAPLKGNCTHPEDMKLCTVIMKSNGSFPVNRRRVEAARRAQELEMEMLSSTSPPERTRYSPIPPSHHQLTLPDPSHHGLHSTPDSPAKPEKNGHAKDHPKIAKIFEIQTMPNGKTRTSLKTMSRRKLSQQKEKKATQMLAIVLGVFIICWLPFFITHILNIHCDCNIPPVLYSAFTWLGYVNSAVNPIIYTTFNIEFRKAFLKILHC

SMILES | Function [1] | Ki [2] [nM] | Ki [3] [nM] | Function [4] | Ki [5] [nM]
CCCN(CCCCNC(=O)c1ccc(-c2ccccc2)cc1)C1CCc2n[nH]cc2C1 (stereo not given) | Agonist | 3.16 | 501 | – | –
CCCN(CCCCNC(=O)c1ccc(-c2ccccc2)cc1)C1CCc2nc(N)sc2C1 (stereo not given) | Agonist | 0.501 | 200 | – | –
CCCN(CCCCNC(=O)c1ccc(-c2ccccc2)cc1)C1CCc2nc(N(C)C)ncc2C1 (stereo not given) | – | 25.1 | 1580 | Antagonist | –
CN(CCCCNC(=O)c1ccc(-c2ccccc2)cc1)C1CCc2nc(N)ncc2C1 (stereo not given) | Agonist | 10 | 1580 | – | –
CCCN1COC[C@@H]2c3cc(O)ccc3OC[C@H]21 | – | 25.1 | – | – | 2510
CCCN(CCCCNC(=O)c1ccc(-c2ccccc2)cc1)C1CCc2nc(NC)ncc2C1 (stereo not given) | Agonist | 15.8 | 2510 | – | –
CCCN(CCCCNC(=O)c1ccc(-c2ccccc2)cc1)C1CCc2ncncc2C1 (stereo not given) | – | 126 | 1260 | – | –
CCCN(CCCCNC(=O)c1ccc(-c2ccccc2)cc1)C1CCc2nc(C)ncc2C1 (stereo not given) | Agonist | 7.94 | 2510 | – | –
CCCN(CCCCNC(=O)c1ccc(-c2ccccc2)cc1)C1CCc2nc(SC)ncc2C1 (stereo not given) | – | 15.8 | 1260 | Antagonist | –
CCCN(CCCCNC(=O)c1ccc(-c2ccccc2)cc1)C1CCc2nc(C(C)(C)C)ncc2C1 (stereo not given) | – | 12.6 | 1580 | Antagonist | –
CCCNC1CCc2nc(N)sc2C1 (stereo not given) | – | 10 | – | – | –
CCCN(CCCCNC(=O)c1ccc(-c2ccccc2)cc1)C1CCc2ncnc(OC)c2C1 (stereo not given) | Agonist | 3.16 | 1580 | – | –
CCCN(CCCCNC(=O)c1ccc(-c2ccccc2)cc1)C1CCc2nc(N)ncc2C1 (stereo not given) | Agonist | 0.794 | 158 | – | –

Reference: ChEMBL document CHEMBL1131981, “Heterocyclic analogues of 2-aminotetralins with high affinity and selectivity for the dopamine D3 receptor” (Bioorg Med Chem Lett, 1999)
